# Laboratory results published in patent US10201531B2, “Indazolyl-oxo-isothiazole compounds” (MOCHIDA PHARMACEUTICAL CO., LTD., priority 2015, dated 2019).
# Tested on: Nrf2
# Assay: Evaluation of Nrf2 activation ability (Nrf2d-LacZ / Keap1 HEK293 reporter, Beta-Glo luminescence)
# Type: cell-based, human
# Settings: Pharmacological Test Example 1, rated A/B/C
# Method: HEK293 cells constantly expressing Nrf2d-LacZ (human Nrf2 degron region fused to LacZ; Hirotsu et al, Genes to Cell, Vol. 16, pp. 406-415 (2011)) and human Keap1 were seeded 7,000 cells/27 μl/well on 384-well plates (Corning 384 Well Flat Clear Bottom White Polystyrene TC-Treated Microplates, Cat. #3707), and cultured overnight at 5% CO2, 37° C. in DMEM medium containing 10% FBS, 100 U/mL penicillin and 100 μg/mL streptomycin. 3 μL/well of a 0.1% DMSO solution of the compound of the invention was added to the cells, which were then cultured for 3 hours at 5% CO2, 37° C. Beta-Glo® reagent (Promega, Beta-Glo Assay System, Cat. #E4740) was added 15 μL/well and incubated for 1 hour at room temperature, and luminescence intensity was measured with a luminometer. Using CDDO-Im as a standard, Nrf2 activation ability was calculated given 100% as the luminescence under stimulus with 100 nM CDDO-Im.
row,EC50,Compound
1,1000 to 5000 nM,"CC(C)(C)OC(=O)N1CC=C(c2ccc(-c3cnn(-c4cc(O)n[s+]4[O-])c3)cn2)CC1 (single isomer, unassigned) [Example 449]"
2,< 1000 nM,"CN1CCOc2cc(-c3cnn(-c4cc(O)n[s+]4[O-])c3)cnc21 (single isomer, unassigned) [Example 450]"
3,< 1000 nM,"COc1nc(-c2ccc(N3CCCC3)nc2)ccc1-c1cnn(-c2cc(O)n[s+]2[O-])c1 (single isomer, unassigned) [Example 453]"

# Same assay, conditions: rated A/B/C, Pharmacological Test Example 1
row,Compound,EC50
1,"CN1CCOc2cc(-c3cc4cnn(-c5cc(O)n[s+]5[O-])c4cn3)cnc21 (single isomer, unassigned) [Example 243]",< 1000 nM
2,"[O-][s+]1nc(O)cc1-n1cc2c(n1)CN(Cc1ccccc1)C2 (single isomer, unassigned) [Example 255]",1000 to 5000 nM
3,"[O-][s+]1nc(O)cc1-n1cc2c(n1)CCN(Cc1ccccc1)C2 (single isomer, unassigned) [Example 256]",1000 to 5000 nM
4,"[O-][s+]1nc(O)cc1-n1ncc2c1CCN(CC1CCCCC1)C2 (single isomer, unassigned) [Example 257]",1000 to 5000 nM
5,"[O-][s+]1nc(O)cc1-n1ncc2c1CN(CC1CCCCC1)C2 (single isomer, unassigned) [Example 273]",< 1000 nM
6,"[O-][s+]1nc(O)cc1-n1cc2c(n1)CN(CC1CCCCC1)C2 (single isomer, unassigned) [Example 275]",1000 to 5000 nM
7,"[O-][s+]1nc(O)cc1-n1ncc2ccccc21 (stereo not shown) [Example 1, 5-(indazol-1-yl)-1-oxo-1,2-thiazol-3-ol]",1000 to 5000 nM
8,[O-][s+]1nc(O)cc1-n1ncc2ccc(Br)cc21 (stereo not shown) [Example 7],1000 to 5000 nM
9,COc1cc(Br)c2cnn(-c3cc(O)n[s+]3[O-])c2c1 (stereo not shown) [Example 9],1000 to 5000 nM
10,CC1COc2cc(-c3ccc4c(cnn4-c4cc(O)n[s+]4[O-])c3)cnc2N1 (stereo not shown) [Example 10],< 1000 nM
11,[O-][s+]1nc(O)cc1-n1ncc2cc(C(F)(F)F)ccc21 (stereo not shown) [Example 14],< 1000 nM
12,Cc1nn(-c2cc(O)n[s+]2[O-])c2ccc(Cl)cc12 (stereo not shown) [Example 15],1000 to 5000 nM
13,[O-][s+]1nc(O)cc1-n1ncc2ccccc21 (stereo not shown) [Example 16],1000 to 5000 nM
14,[O-][s+]1nc(O)cc1-n1ncc2ccccc21 (stereo not shown) [Example 17],5000 to 10000 nM
15,Cc1cc2cnn(-c3cc(O)n[s+]3[O-])c2cc1C (stereo not shown) [Example 18],< 1000 nM
16,N#Cc1nn(-c2cc(O)n[s+]2[O-])c2ccc(Cl)cc12 (stereo not shown) [Example 21],1000 to 5000 nM
17,O=C(c1c(Cl)cccc1Cl)c1nn(-c2cc(O)n[s+]2[O-])c2ccccc12 (stereo not shown) [Example 22],1000 to 5000 nM
18,Cc1cccc2c1cnn2-c1cc(O)n[s+]1[O-] (stereo not shown) [Example 23],1000 to 5000 nM

row,Compound,EC50
1,[O-][s+]1nc(O)cc1-n1ncc2cc(OCc3ccccc3)ccc21 (stereo not shown) [Example 26],1000 to 5000 nM
2,[O-][s+]1nc(O)cc1-n1ncc2c(Cl)cccc21 (stereo not shown) [Example 29],1000 to 5000 nM
3,[O-][s+]1nc(O)cc1-n1ncc2c(OCc3ccccc3)cccc21 (stereo not shown) [Example 30],5000 to 10000 nM
4,[O-][s+]1nc(O)cc1-n1ncc2ccc(Cl)cc21 (stereo not shown) [Example 31],1000 to 5000 nM
5,[O-][s+]1nc(O)cc1-n1ncc2ccc(C(F)(F)F)cc21 (stereo not shown) [Example 33],1000 to 5000 nM
6,Cc1cccc2cnn(-c3cc(O)n[s+]3[O-])c12 (stereo not shown) [Example 34],1000 to 5000 nM
7,[O-][s+]1nc(O)cc1-n1ncc2cccc(Cl)c21 (stereo not shown) [Example 37],1000 to 5000 nM
8,COc1ccc2cnn(-c3cc(O)n[s+]3[O-])c2c1 (stereo not shown) [Example 55],< 1000 nM
9,[O-][s+]1nc(O)cc1-n1ncc2cc(-c3cnc4ccoc4c3)ccc21 (stereo not shown) [Example 61],< 1000 nM
10,O=c1[nH]ccc2cc(-c3ccc4c(cnn4-c4cc(O)n[s+]4[O-])c3)ccc12 (stereo not shown) [Example 64],1000 to 5000 nM
11,COc1cc2c(cnn2-c2cc(O)n[s+]2[O-])cc1Br (stereo not shown) [Example 69],1000 to 5000 nM
12,[O-][s+]1nc(O)cc1-n1ncc2cc(-c3ccc(Oc4ccccc4)cc3)ccc21 (stereo not shown) [Example 74],< 1000 nM
13,Cn1cc2c(-c3ccc4c(cnn4-c4cc(O)n[s+]4[O-])c3)cccc2n1 (stereo not shown) [Example 76],1000 to 5000 nM
14,[O-][s+]1nc(O)cc1-n1ncc2cc(-c3cccc(CN4CCOCC4)c3)ccc21 (stereo not shown) [Example 77],< 1000 nM
15,[O-][s+]1nc(O)cc1-n1ncc2ccc(-c3ccccc3)cc21 (stereo not shown) [Example 78],1000 to 5000 nM
16,[O-][s+]1nc(O)cc1-n1ncc2c(-c3ccccc3)cccc21 (stereo not shown) [Example 79],1000 to 5000 nM
17,[O-][s+]1nc(O)cc1-n1ncc2c(-c3cncnc3)cccc21 (stereo not shown) [Example 81],5000 to 10000 nM

# The remaining lines, values ahead:
row,EC50,Compound
1,< 1000 nM,"[O-][s+]1nc(O)cc1-n1ncc2cc(Br)ccc21 (stereo not shown) [Example 2, 5-(5-bromoindazol-1-yl)-1-oxo-1,2-thiazol-3-ol]"
2,< 1000 nM,"COc1cc(-c2ccc3c(cnn3-c3cc(O)n[s+]3[O-])c2)ccn1 (stereo not shown) [Example 3, 5-[5-(2-methoxypyridin-4-yl)indazol-1-yl]-1-oxo-1,2-thiazol-3-ol]"
3,< 1000 nM,"CN1CCOc2cc(-c3ccc4c(cnn4-c4cc(O)n[s+]4[O-])c3)cnc21 (stereo not shown) [Example 5, 5-[5-(4-methyl-2,3-dihydropyrido[3,2-b][1, 4]oxazin-7-yl)indazol-1-yl]-1-oxo-1,2-thiazol-3-ol]"
4,1000 to 5000 nM,COc1ccc(-c2ccc3c(cnn3-c3cc(O)n[s+]3[O-])c2)c(C)n1 (stereo not shown) [Example 6]
5,< 1000 nM,CC(C)N1CCOc2cc(-c3ccc4c(cnn4-c4cc(O)n[s+]4[O-])c3)cnc21 (stereo not shown) [Example 8]
6,1000 to 5000 nM,[O-][s+]1nc(O)cc1-n1ncc2cc(F)ccc21 (stereo not shown) [Example 11]
7,< 1000 nM,[O-][s+]1nc(O)cc1-n1ncc2cc(Cl)ccc21 (stereo not shown) [Example 12]
8,1000 to 5000 nM,N#Cc1ccc2c(cnn2-c2cc(O)n[s+]2[O-])c1 (stereo not shown) [Example 19]
9,1000 to 5000 nM,COc1ccc2c(cnn2-c2cc(O)n[s+]2[O-])c1 (stereo not shown) [Example 24]
10,5000 to 10000 nM,Cc1ccc2c(cnn2-c2cc(O)n[s+]2[O-])c1 (stereo not shown) [Example 25]
11,1000 to 5000 nM,[O-][s+]1nc(O)cc1-n1ncc2cc(C3CC3)ccc21 (stereo not shown) [Example 27]
12,1000 to 5000 nM,[O-][s+]1nc(O)cc1-n1ncc2cc(-c3ccccc3)ccc21 (stereo not shown) [Example 28]
13,1000 to 5000 nM,Cc1ccc2cnn(-c3cc(O)n[s+]3[O-])c2c1 (stereo not shown) [Example 32]
14,< 1000 nM,[O-][s+]1nc(O)cc1-n1ncc2cc(-c3cccnc3)ccc21 (stereo not shown) [Example 38]
15,< 1000 nM,[O-][s+]1nc(O)cc1-n1ncc2cc(C3=CCC(F)(F)CC3)ccc21 (stereo not shown) [Example 39]
16,< 1000 nM,[O-][s+]1nc(O)cc1-n1ncc2cc(-c3ccccc3Cl)ccc21 (stereo not shown) [Example 40]
17,1000 to 5000 nM,[O-][s+]1nc(O)cc1-n1ncc2cc(-c3cncnc3)ccc21 (stereo not shown) [Example 41]
18,< 1000 nM,[O-][s+]1nc(O)cc1-n1ncc2cc(C3=CCOCC3)ccc21 (stereo not shown) [Example 42]
19,< 1000 nM,[O-][s+]1nc(O)cc1-n1ncc2cc(-c3ccccn3)ccc21 (stereo not shown) [Example 43]
20,< 1000 nM,CC(C)(C)OC(=O)N1CC=C(c2ccc3c(cnn3-c3cc(O)n[s+]3[O-])c2)CC1 (stereo not shown) [Example 44]
21,1000 to 5000 nM,Nc1ccc(-c2ccc3c(cnn3-c3cc(O)n[s+]3[O-])c2)cn1 (stereo not shown) [Example 45]

row,EC50,Compound
1,< 1000 nM,[O-][s+]1nc(O)cc1-n1ncc2cc(-c3ccc(C4CC4)nc3)ccc21 (stereo not shown) [Example 46]
2,1000 to 5000 nM,COc1ccncc1-c1ccc2c(cnn2-c2cc(O)n[s+]2[O-])c1 (stereo not shown) [Example 47]
3,< 1000 nM,Cc1cncc(-c2ccc3c(cnn3-c3cc(O)n[s+]3[O-])c2)c1 (stereo not shown) [Example 49]
4,< 1000 nM,Cn1cc(-c2ccc3c(cnn3-c3cc(O)n[s+]3[O-])c2)cn1 (stereo not shown) [Example 50]
5,5000 to 10000 nM,[O-][s+]1nc(O)cc1-n1ncc2cc(-c3cn[nH]c3)ccc21 (stereo not shown) [Example 51]
6,< 1000 nM,CN1CCN(c2cc(-c3ccc4c(cnn4-c4cc(O)n[s+]4[O-])c3)ccn2)CC1 (stereo not shown) [Example 52]
7,< 1000 nM,CN1CCN(c2cc(-c3ccc4c(cnn4-c4cc(O)n[s+]4[O-])c3)ccn2)CC1 (stereo not shown) [Example 53]
8,< 1000 nM,[O-][s+]1nc(O)cc1-n1ncc2cc(-c3cccnc3)ccc21 (stereo not shown) [Example 54]
9,< 1000 nM,Cc1cncc(-c2ccc3c(cnn3-c3cc(O)n[s+]3[O-])c2)c1 (stereo not shown) [Example 56]
10,< 1000 nM,[O-][s+]1nc(O)cc1-n1ncc2cc(-c3ccncc3)ccc21 (stereo not shown) [Example 58]
11,< 1000 nM,[O-][s+]1nc(O)cc1-n1ncc2cc(-c3ccnc(N4CCOCC4)c3)ccc21 (stereo not shown) [Example 59]
12,< 1000 nM,CC(C)(C)OC(=O)N1CCC(c2ccc3c(cnn3-c3cc(O)n[s+]3[O-])c2)CC1 (stereo not shown) [Example 62]
13,5000 to 10000 nM,O=C(NC1CC1)c1ccc(F)c(-c2ccc3c(cnn3-c3cc(O)n[s+]3[O-])c2)c1 (stereo not shown) [Example 63]
14,5000 to 10000 nM,CC(=O)NC1(c2ccc(-c3ccc4c(cnn4-c4cc(O)n[s+]4[O-])c3)cc2)CC1 (stereo not shown) [Example 65]
15,1000 to 5000 nM,CC(=O)Nc1ccc(-c2ccc3c(cnn3-c3cc(O)n[s+]3[O-])c2)cc1 (stereo not shown) [Example 66]
16,1000 to 5000 nM,O=C(NC1CC1)c1ccc(-c2ccc3c(cnn3-c3cc(O)n[s+]3[O-])c2)cc1 (stereo not shown) [Example 68]
17,1000 to 5000 nM,COc1cc2c(cnn2-c2cc(O)n[s+]2[O-])cc1C1=CCN(C(=O)OC(C)(C)C)CC1 (stereo not shown) [Example 71]
18,< 1000 nM,COc1ncc(-c2ccc3c(cnn3-c3cc(O)n[s+]3[O-])c2)cc1Cl (stereo not shown) [Example 73]
19,1000 to 5000 nM,O=C(c1ccc(-c2ccc3c(cnn3-c3cc(O)n[s+]3[O-])c2)cc1)N1CCCC1 (stereo not shown) [Example 75]
20,< 1000 nM,[2H]c1cccc(-c2ccc3c(cnn3-c3cc(O)n[s+]3[O-])c2)n1 (stereo not shown) [Example 82]
